Data published in US11485728B2, “Small molecules for the treatment of autoimmune diseases and cancer” (Athos Therapeutics, Inc., priority 2020, dated 2022).

Columns and labels:
Assay type in all cases: in vitro ADME
[1] = In-vitro half-life in human liver microsomes; conditions: Human liver microsomes 0.5 mg/mL; 1 μg/mL drug; NRS; read-out: Metabolic Half-life
Description: (§1) In each of the species (human, rat, mouse) of liver matrix to be tested, a working concentration of 2 μg/mL was prepared of each test article from the 0.5 mg/mL DMSO stock solution by adding 3 μL of 0.5 mg/mL test article stock solution to 747 μL of the 1 mg/mL liver matrix. Incubation was performed at 37±2° C. with gentle, continuous mixing in shaking water bath in 2.0 mL-well capacity 96-Deepwell plates (96-DWP). Samples were retrieved in duplicate at the following time points: 0, 5, 10, 15, 30 and 60 minutes. The final mixture contained 1 μg/mL of drug and 0.5 mg/mL of liver matrix. First, 50 μL of test articles in liver matrix was added to the 96-DWP and pre-warmed the mixture in the 96-DWP for 2 minutes in the 37° C. water bath. The enzymatic reaction was started by the addition of 50 μL of the corresponding 2× NADPH regenerating system (NRS) cofactor solution to all sample wells and stopped by the addition of 300 μL of stop solution (acetonitrile containing 10 ng/mL Tolbutamide as an internal standard (I.Std.). The samples were agitated for 10 minutes and then centrifuged for 20 minutes at 4500 rpm. 25 μL of supernatant was diluted with 475 μL acetonitrile containing I. Std. into a new 96-DWPs for LC-MS/MS analysis.
(§2) Half-life calculations were generated and calculated by Graphpad Prism® software. The half-life of test compound was calculated based on the first-order reaction kinetics. The data was transformed to linear regression (y=log(y) where “y” axis represents the % compound remaining at any given time with respect to time 0 minutes; “x” axis represents time in minutes) in order to calculate the half-life.
(§3) A comparison of metabolic stability in time-course incubation experiments in varying species of liver can provide information of pharmacokinetic properties of drugs attributable to species-related differences in hepatic metabolism. The results of these experiments often assist in further applications such as assessing in vitro metabolite profiling and choosing relevant species for toxicology studies based on similarities relative to the metabolic stability to the human profile. For these experiments, the test compound was tested in parallel with a positive control, Dasatinab, in an enzymatic reaction solution of each species (human and rat) of liver microsomes containing a NADPH regenerating system (NRS). The final mixture contained 1 μg/mL of drug and 0.5 mg/mL of liver matrix. Incubations were performed at 37±2° C. with gentle, continuous mixing in shaking water bath in 96-Deep well plates. The stability of the test compound is monitored using fast, specific and sensitive LC/MS/MS analysis.

[2] = In-vitro half-life in rat liver microsomes; conditions: Rat liver microsomes 0.5 mg/mL; 1 μg/mL drug; NRS; read-out: Metabolic Half-life
Description: as §1, §2, §3

[3] = In-vitro half-life in mouse liver microsomes; conditions: Mouse liver microsomes 0.5 mg/mL; 1 μg/mL drug; NRS; read-out: Metabolic Half-life
Description: as §1, §2, §3

CYP3A4 = biological target: T1, CYP3A4 (Homo sapiens, UniProt P08684); test: CYP-direct inhibition, CYP3A4
T1 construct: from tissue; host or cells: pooled human liver microsomes
Description: Many drugs inhibit cytochrome P450 enzymes to cause clinically significant changes in the pharmacokinetics of other drugs. In vitro cytochrome P450 inhibition, can provide crucial information in evaluating potential clinical drug-drug interactions and is useful for focusing in vivo tests to areas of concern. The cytochrome P450 inhibition assay was developed by preparing a working cocktail solution consisting of six probe substrates 10 μM ethoxy-resorufin (CYP1A2), 100 μM rosiglitazone (CYP2C8), 50 μM diclofenac (CYP2C9), 300 μM S-mephenytoin (CYP2C19), 50 μM dextromethorphan (CYP2D6), and 20 μM midazolam (CYP3A4). A mixture solution consists of 140 uL of 0.286 mg/mL of pooled human liver microsome working solution and 20 uL working solutions of test articles, standard control inhibitors, or positive control placebo and 20 uL of substrate cocktail mixture working solution was prepared. The mixture solution was pre-warm in a gentle shaking bath at 37±2° C. for 5 minutes. The enzymatic reaction started by adding 20 uL of NRS working solution to the mixture solution and incubated for 10 minutes at 37±2° C. To stop the reaction, an addition of 400 μL cold stop solution (acetonitrile containing 50 ng/mL Tolbutamide as an internal standard (I.Std.) was added to the mixture solution. The final concentration of test article, inhibitors, substrates, and cofactors are noted in Table 0.1 below. Two individual samples were prepared for each test compound. The extracted samples were vortexed and then centrifuged at 4500 rpm for 7 minutes using Eppendorf Centrifuge 5910R. 200 uL of supernatant was diluting with 200 uL of 50% Methanol into 96-DW plate for LC/MS/MS analysis
Concentration-response plots are used to determine the effects of an inhibitor on an enzymatic reaction. A typical concentration-response plot provides fractional activity (Y axis) is plotted as a function of log inhibitor concentration (X axis). The data are fitted using a standard Sigmoidal dose-response equation which is also called a […] logistic equation. The concentration of compound that results in 50% inhibition of maximal activity is termed as the IC50 (inhibitor concentration yielding 50% inhibition). IC50 value is calculated using Prism GraphPad software, version 9. […].
Cytochrome P450 inhibition of a drug is a key factor in determining pharmacokinetic drug-drug interactions. The objective of this study was to evaluate the inhibition potential of G9a inhibitors on six (6) major human cytochrome P450 enzymes, including CYP1A2, CYP2C8, CYP2C9, CYP2C19, CYP2D6, and CYP3A4. Inhibition was determined by using a substrate cocktail and analyzing the rate of specific metabolites formation. The cytochrome P450 inhibition assay was developed using a cocktail consisting of six (6) probe substrates ethoxy-resorufin (CYP1A2), rosiglitazone (CYP2C8), diclofenac (CYP2C9), S-mephenytoin (CYP2C19), dextromethorphan (CYP2D6), and midazolam (CYP3A4). The cocktail was incubated in human liver microsome with NADPH regenerating system (NRS) in a shaking bath at 37±2° C. The formation of specific metabolites was monitored by LC/MS/MS. Test compound was added to the cocktail-liver microsome mixture at varying concentrations and its effect on cytochrome P450 activity was determined by analyzing the rate of specific metabolite formation. The percent inhibition was calculated and plotted with reference to the concentration, and the IC50 value for inhibition was derived by fitting the data with a using log(inhibitor) vs. normalized response with variable slope least squares fit by Graphpad Prism® software. […].

T1 sequence (P08684 whole entry): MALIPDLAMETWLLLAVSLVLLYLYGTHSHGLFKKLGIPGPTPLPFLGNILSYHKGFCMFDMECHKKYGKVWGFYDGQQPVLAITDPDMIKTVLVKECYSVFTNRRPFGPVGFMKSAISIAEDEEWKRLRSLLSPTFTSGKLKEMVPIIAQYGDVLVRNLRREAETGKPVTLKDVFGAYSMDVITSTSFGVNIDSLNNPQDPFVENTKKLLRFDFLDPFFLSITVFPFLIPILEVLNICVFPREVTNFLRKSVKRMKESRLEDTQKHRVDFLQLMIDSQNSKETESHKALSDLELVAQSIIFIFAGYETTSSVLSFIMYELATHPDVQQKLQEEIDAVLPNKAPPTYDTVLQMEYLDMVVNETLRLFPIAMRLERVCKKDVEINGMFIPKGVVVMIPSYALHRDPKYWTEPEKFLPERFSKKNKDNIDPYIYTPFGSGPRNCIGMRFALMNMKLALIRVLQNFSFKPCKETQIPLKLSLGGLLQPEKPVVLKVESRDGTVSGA

Row | Structure (SMILES) | half-life at 1 μg/mL [1] [h] | half-life at 1 μg/mL [2] [h] | half-life at 1 μg/mL [3] [h] | IC50 (CYP3A4) [µM]
1 | COc1cc2c(NC3CCS(=O)(=O)CC3)nc(N3CCC(F)(F)CC3)nc2cc1OCCCN1CCCC1 [Compound 1, 4-((2-(4,4-difluoropiperidin-1-yl)-6-methoxy-7-(3-(pyrrolidin-1-yl)propoxy)quinazolin-4-yl)amino)tetrahydro-2H-thiopyran 1,1-dioxide] | > 1 | > 1 | > 1 | > 100
2 | COc1cc2c(NC3CCOCC3)nc(N3CCC(F)(F)CC3)nc2cc1OCCCN1CCCC1 [Compound 2, 2-(4,4-difluoropiperidin-1-yl)-6-methoxy-7-(3-(pyrrolidin-1-yl)propoxy)-N-(tetrahydro-2H-pyran-4-yl)quinazolin-4-amine] | > 1 | 0.828 | > 1 | > 100
3 | COCCN1CCC(Nc2nc(N3CCC(F)(F)CC3)nc3cc(OCCCN4CCCC4)c(OC)cc23)CC1 [Compound 3, 2-(4,4-difluoropiperidin-1-yl)-6-methoxy-N-(1-(2-methoxyethyl)piperidin-4-yl)-7-(3-(pyrrolidin-1-yl)propoxy)quinazolin-4-amine] | > 1 | > 1 | > 1 | > 100
4 | COCCNc1nc(N2CCC(F)(F)CC2)nc2cc(OCCCN3CCCC3)c(OC)cc12 [Compound 4, 2-(4,4-difluoropiperidin-1-yl)-6-methoxy-N-(2-methoxyethyl)-7-(3-(pyrrolidin-1-yl)propoxy)quinazolin-4-amine] | > 1 | > 1 | > 1 | > 100
5 | COc1cc2c(NCC3CCN(C)CC3)nc(N3CCC(F)(F)CC3)nc2cc1OCCCN1CCCC1 [Compound 5, 2-(4,4-difluoropiperidin-1-yl)-6-methoxy-N-((1-methylpiperidin-4-yl)methyl)-7-(3-(pyrrolidin-1-yl)propoxy)quinazolin-4-amine] | > 1 | > 1 | > 1 | > 100
6 | COc1cc2c(Nc3ccncc3)nc(N3CCC(F)(F)CC3)nc2cc1OCCCN1CCCC1 [Compound 7, 2-(4,4-difluoropiperidin-1-yl)-6-methoxy-N-(pyridin-4-yl)-7-(3-(pyrrolidin-1-yl)propoxy)quinazolin-4-amine] | > 1 | 0.617 | 0.727 | > 100
7 | COc1cc2c(NC3CCNCC3)nc(N3CCC(F)(F)CC3)nc2cc1OCCCN1CCCC1 [Compound 8, 2-(4,4-difluoropiperidin-1-yl)-6-methoxy-N-(piperidin-4-yl)-7-(3-(pyrrolidin-1-yl)propoxy)quinazolin-4-amine] | > 1 | > 1 | > 1 | > 100
8 | COc1cc2c(NCC(N)=O)nc(N3CCC(F)(F)CC3)nc2cc1OCCCN1CCCC1 [Compound 9, 2-((2-(4,4-difluoropiperidin-1-yl)-6-methoxy-7-(3-(pyrrolidin-1-yl)propoxy)quinazolin-4-yl)amino)acetamide] | > 1 | > 1 | > 1 | > 100
9 | COc1cc2c(NC3COC3)nc(N3CCC(F)(F)CC3)nc2cc1OCCCN1CCCC1 [Compound 11, 2-(4,4-difluoropiperidin-1-yl)-6-methoxy-N-(oxetan-3-yl)-7-(3-(pyrrolidin-1-yl)propoxy)quinazolin-4-amine] | > 1 | > 1 | > 1 | > 100
10 | COc1cc2c(NC3CCS(=O)(=O)CC3)nc(N3CCCC3)nc2cc1OCCCN1CCCC1 [Compound 80, 4-((6-methoxy-2-(pyrrolidin-1-yl)-7-(3-(pyrrolidin-1-yl)propoxy)quinazolin-4-yl)amino)tetrahydro-2H-thiopyran 1,1-dioxide] | > 1 | > 1 | > 1 | > 100
11 | COc1cc2c(NC3CCS(=O)(=O)CC3)nc(N3CCOCC3)nc2cc1OCCCN1CCCC1 [Compound 102, 4-((6-methoxy-2-morpholino-7-(3-(pyrrolidin-1-yl)propoxy)quinazolin-4-yl)amino)tetrahydro-2H-thiopyran 1,1-dioxide] | > 1 | > 1 | > 1 | > 100
12 | COc1cc2c(NC3CCS(=O)(=O)CC3)nc(N3CCS(=O)(=O)CC3)nc2cc1OCCCN1CCCC1 [Compound 103, 4-(4-((1,1-dioxidotetrahydro-2H-thiopyran-4-yl)amino)-6-methoxy-7-(3-(pyrrolidin-1-yl)propoxy)quinazolin-2-yl)thiomorpholine 1,1-dioxide] | > 1 | > 1 | > 1 | > 100
13 | COc1cc2c(NC3CCS(=O)(=O)CC3)nc(N3CCN(C)CC3)nc2cc1OCCCN1CCCC1 [Compound 109, 4-((6-methoxy-2-(4-methylpiperazin-1-yl)-7-(3-(pyrrolidin-1-yl)propoxy)quinazolin-4-yl)amino)tetrahydro-2H-thiopyran 1,1-dioxide] | 0.342 | > 1 | > 1 | > 100
14 | COc1cc2c(NC3CCS(=O)(=O)CC3)nc(N3CCCN(C)CC3)nc2cc1OCCCN1CCCC1 [Compound 110, 4-((6-methoxy-2-(4-methyl-1,4-diazepan-1-yl)-7-(3-(pyrrolidin-1-yl)propoxy)quinazolin-4-yl)amino)tetrahydro-2H-thiopyran 1,1-dioxide] | > 1 | > 1 | > 1 | > 100
